Measurements taken from US20250276924A1, “CHEMICAL AND BIOLOGICAL DEGRADATION OF ETHER PER- AND POLYFLUOROALKYL SUBSTANCES” (The Regents of the University of California, priority 2024, published 2025).

Test: Chemical treatment by UV (254 nm)/sulfite advanced reduction at pH 9.5
Format: physicochemical
Experimental: The chemical treatment of five non-biodegradable PFAS was conducted in 600 mL closed-system batch reactors equipped with a low-pressure mercury lamp (254 nm, 18 W) at 20° C. The reaction mixture contained 25 μM ether PFAS, 10 mM Na2SO3, and 5 mM NaHCO3 at pH 9.5 adjusted by NaOH. […]

| Compound | defluorination by chemical reductive degradation (UV 254 nm, SO3^2− 10 mM, pH 9.5, after 48 h) | degradation by UV/sulfite treatment (second advanced reduction treatment, result in words) |
| --- | --- | --- |
| O=C(O)C(F)(OC(F)(F)C(F)(F)C(F)(F)F)C(F)(F)F (centres unmarked) [E10, 2,3,3,3-tetrafluoro-2-(perfluoropropoxy)propanoic acid] | less than 50% |  |
| Trifluoroacetic acid [TP112] |  | quickly and completely degraded |
